Laboratory results reported in patent US20100041746A1, “NOVEL USE OF ORGANIC COMPOUNDS” (priority 2006, published 2010).

Tests used:
C57B1/6J mice = assay: Running performance, body composition and muscle weight of high-fat-diet mice supplemented for 9 weeks; type: in vivo, mouse
Method: 20 male C57B1/6J mice were obtained from Jackson Laboratory (Bar Harbor, Me., USA) at the age of 5 weeks. All mice were administered a high-fat diet (Kliba#2154, Provimi Kliba AG, Kaiseraugst, Switzerland) for 8 weeks to induce obesity. Thereafter, the mice were randomly assigned into two groups:
The duration of the supplementation was 9 weeks. During this period all mice received food and water ad libitum. At the end of the supplementation period, maximal running performance on a rodent treadmill (Technical & Scientific Equipment GmbH, Bad Homburg, Germany) was determined. Body composition was measured by quantitative magnetic resonance (Minispec MQ10, Bruker Optics GmbH, Faellanden, Switzerland) in conscious animals. At the end of the study, the animals were killed, blood was taken and the gastrocnemius-plantaris-soleus muscle group was excised and weighted.

mACO1 = assay: Gene expression in C2C12 muscle cells (TaqMan RT-PCR): mACO1; type: cell-based, mouse; conditions: 24 h incubation, mRNA
Method: (§1) C2C12 subclone cells were obtained from Dr. Grimaldi, University of Nice, France. C2C12PPd cells were seeded in 24-well-plates with 0.1×106 to 0.15×106 and kept at 37° C. in maintenance medium (DMEM #41965 adjusted to 10% FBS, 2 mM L-Glutamine, 1 mM sodium pyruvate, 100 IU/ml penicillin and 100 μg/ml streptomycin). At 90-95% confluency, cells were washed with 1×PBS and changed to differentiation medium (DMEM #41965 adjusted to 3% FBS, 2 mM Glutamine and 1 mM sodium pyruvate). After 4 days of differentiation, cells were washed with 1×PBS and treated in treatment medium (DMEM #41965 adjusted to 2% BSA, 2 mM Glutamine and 100 IU/ml penicillin and 100 μg/ml streptomycin) with the test compounds. DMSO contents were adjusted to 0.5% final concentration.
(§2) After 24 h incubation with tested compounds, cells were washed with 1×PBS, harvested with 300 μl RLT buffer (Qiagen RNeasy Mini Kit #74106) in QIAshredder (Qiagen 79656) and stored at −20° C.
(§3) Total RNA was extracted using the Qiagen RNeasy Mini Kit, including an in column DNase step (Qiagen #79254) according to the manufacture's protocol. RNA concentration was determined using RiboGreen® RNA quantification assay (Molecular Probes #R11490, Eugene, USA) according to the manufacturer's protocol. 200 ng of the total RNA were subject to first strand cDNA synthesis by reverse transcription using the Omniscript™ RT-kit (Qiagen #205113, Basel, CH) with 10 μM Random Primers (Promega #C1181) according to the manufacturer's instructions. The final volume was adjusted to 400 μl with DEPC-treated water (Ambion, Austin, Tex., USA) and stored at −20° C.
(§4) Quantitative real-time TaqMan RT-PCR, based on the multiplex method, was used to quantify the expression levels of selected genes. In the quantitative TaqMan RT-PCR, 5 μl of the diluted cDNA was added to 20 μl of the reaction mixture, consisting of 12.5 μl TaqMan 2× Master Mix (PE biosystems, Rotkreuz, CH), 300 nM PCR primers (forward and reverse), and 100 nM TaqMan probe for the gene of interest. The reference gene used was 18S rRNA, with primers and probes at 50 nM and 100 nM, respectively. Probes for the gene of interest were labeled with FAM on the 5′ end and with Tamra on the 3′ end. The 18S rRNA probe was labeled with VIC on the 5′ end and with Tamra on the 3′ end. Amplification was performed using an Abi-Prism 7700 Sequence Detector (PE Biosystems, Foster City, Calif., USA) in MicroAmp Optical 96-well reaction plates (PE Biosystems, Foster City, Calif., USA). The PCR amplification program consisted of 2 min at 50° C., 10 min at 95° C., and 40 cycles of 15 sec at 95° C. and 60 sec at 60° C. Threshold CT values were set at 0.05. The baseline start and stop values for the gene of interest were set at 3 and 15, respectively, and for the reference gene (18S rRNA) at 3 and 7, respectively. mRNA abundance was determined using the ΔCT method according to the manufacturer's protocol. Briefly, the ΔCT for the gene of interest was determined as the difference between the CT values for the reference gene and the gene of interest. Then, ΔΔCT was determined as the difference in dCT between the untreated control group and each of the treated groups. The fold induction for the gene of interest (i.e. the amount of mRNA for the gene of interest, normalized to an endogenous reference and relative to a calibrator) was determined as 2-ΔΔCT In graphs data is presented as a percentage.
(§5) Genes in involved in fatty acid β-oxidation and lipid metabolism were checked using real-time RT-PCR.

mFABP3 = assay: Gene expression in C2C12 muscle cells (TaqMan RT-PCR): mFABP3; type: cell-based, mouse; conditions: for mFABP3 fold of induction compared to DMSO control: C2C12 cells, 24 h incubation, mRNA; for Effect on FABP3 expression (in words): muscle cells
Method: as §1, §2, §3, §4, §5

mCD36 = assay: Gene expression in C2C12 muscle cells (TaqMan RT-PCR): mCD36; type: cell-based, mouse; conditions: for mCD36 fold of induction compared to DMSO control: C2C12 cells, 24 h incubation, mRNA; for Effect on CD36 expression (in words): muscle cells
Method: as §1, §2, §3, §4, §5

mUCP2 = assay: Gene expression in C2C12 muscle cells (TaqMan RT-PCR): mUCP2; type: cell-based, mouse; conditions: 24 h incubation, mRNA
Method: as §1, §2, §3, §4, §5

mLPL = assay: Gene expression in C2C12 muscle cells (TaqMan RT-PCR): mLPL; type: cell-based, mouse; conditions: for mLPL fold of induction compared to DMSO control: C2C12 cells, 24 h incubation, mRNA; for Effect on LPL expression (in words): muscle cells
Method: as §1, §2, §3, §4, §5

mCPT1b = assay: Gene expression in C2C12 muscle cells (TaqMan RT-PCR): mCPT1b; type: cell-based, mouse; conditions: for mCPT1b fold of induction compared to DMSO control: C2C12 cells, 24 h incubation, mRNA; for Effect on CPT1b expression (in words): muscle cells
Method: as §1, §2, §3, §4, §5

mUCP3 = assay: Gene expression in C2C12 muscle cells (TaqMan RT-PCR): mUCP3; type: cell-based, mouse; conditions: for mUCP3 fold of induction compared to DMSO control: C2C12 cells, 24 h incubation, mRNA; for Effect on UCP3 expression (in words): muscle cells
Method: as §1, §2, §3, §4, §5

[1] = compared to mice in the control group
[2] = mice, high-fat diet supplemented with 0.03% w/w, 9 weeks
[3] = mice, high-fat diet supplemented with 0.03% w/w, 9 weeks, quantitative magnetic resonance

Compound: COc1ccc(-c2coc3cc(OC)ccc3c2=O)cc1 [4′,7-Dimethoxyisoflavone, 4′,7-dimethoxyisoflavone]
- Increase of maximal running distance (C57B1/6J mice; compared to control group, treadmill): 6%
- Effect on body weight (in words) (C57B1/6J mice; [1]): decreased
- Effect on gastrocnemius-plantaris-soleus weight relative to body weight (in words) (C57B1/6J mice; [1]): increased
- Effect on percentage of body fat mass (in words) (C57B1/6J mice; [1]): decreased
- Effect on percentage of lean body mass (in words) (C57B1/6J mice; [1]): increased
- Body weight (C57B1/6J mice; [2]): 30.5 g
- Gastrocnemius-plantaris-soleus weight (C57B1/6J mice; [2]): 6.74 mg/g body weight
- Body fat mass (C57B1/6J mice; [3]): 15.6 % of body weight
- Lean body mass (C57B1/6J mice; [3]): 75.0 % of body weight
- Maximal running distance (C57B1/6J mice; mice, high-fat diet supplemented with 0.03% w/w, 9 weeks, rodent treadmill): 2201 m

Compound: O=C(C=Cc1ccc(O)c(O)c1)NC(=O)c1ccccc1O [Compound 1, N-[3-(3,4-dihydroxyphenyl)-1-oxo-2-propenyl]-2-hydroxybenzamide]
- mACO1 fold of induction compared to DMSO control (mACO1): 1.98 fold
- mFABP3 fold of induction compared to DMSO control (mFABP3): 1.35 fold
- mCD36 fold of induction compared to DMSO control (mCD36): 2.93 fold
- mUCP2 fold of induction compared to DMSO control (mUCP2): 2.46 fold
- mLPL fold of induction compared to DMSO control (mLPL): 1.11 fold
- mCPT1b fold of induction compared to DMSO control (mCPT1b): 1.33 fold

Compound: COc1cc(C=CC(=O)NC(=O)c2ccccc2O)cc(OC)c1OC [Compound 2]
- mACO1 fold of induction compared to DMSO control (mACO1): 1.81 fold
- mFABP3 fold of induction compared to DMSO control (mFABP3): 1.63 fold
- mCD36 fold of induction compared to DMSO control (mCD36): 3.2 fold
- mUCP2 fold of induction compared to DMSO control (mUCP2): 3.27 fold
- mLPL fold of induction compared to DMSO control (mLPL): 1.91 fold
- mCPT1b fold of induction compared to DMSO control (mCPT1b): 1.05 fold

Compound: COc1ccc(C=CC(=O)c2cc(OC)ccc2OC)c(OC)c1 [Compound 3, 3-(2,4-dimethoxyphenyl)-1-(2,5-dimethoxyphenyl)-2-propen-1-one]
- mUCP3 fold of induction compared to DMSO control (mUCP3): 4.73 fold
- Effect on UCP3 expression (in words) (mUCP3): increased UCP3 expression
- mACO1 fold of induction compared to DMSO control (mACO1): 1.54 fold
- mFABP3 fold of induction compared to DMSO control (mFABP3): 4.76 fold
- Effect on FABP3 expression (in words) (mFABP3): most remarkable effect
- mCD36 fold of induction compared to DMSO control (mCD36): 10.16 fold
- Effect on CD36 expression (in words) (mCD36): most remarkable effect
- mUCP2 fold of induction compared to DMSO control (mUCP2): 4.25 fold
- mLPL fold of induction compared to DMSO control (mLPL): 3.5 fold
- Effect on LPL expression (in words) (mLPL): increased moderately
- mCPT1b fold of induction compared to DMSO control (mCPT1b): 3.64 fold
- Effect on CPT1b expression (in words) (mCPT1b): induced

Compound: COc1ccc(C(=O)/C=C/c2c(CCN(C)C(C)=O)cc3c(c2OC)OCO3)cc1 [Compound 4]
- mUCP3 fold of induction compared to DMSO control (mUCP3): 5.95 fold
- Effect on UCP3 expression (in words) (mUCP3): increased UCP3 expression
- mACO1 fold of induction compared to DMSO control (mACO1): 1.74 fold
- mFABP3 fold of induction compared to DMSO control (mFABP3): 6.29 fold
- Effect on FABP3 expression (in words) (mFABP3): most remarkable effect
- mCD36 fold of induction compared to DMSO control (mCD36): 15.56 fold
- Effect on CD36 expression (in words) (mCD36): most remarkable effect
- mUCP2 fold of induction compared to DMSO control (mUCP2): 7.55 fold
- mLPL fold of induction compared to DMSO control (mLPL): 3.31 fold
- Effect on LPL expression (in words) (mLPL): increased moderately
- mCPT1b fold of induction compared to DMSO control (mCPT1b): 5.08 fold
- Effect on CPT1b expression (in words) (mCPT1b): induced

Compound: COc1ccc(C(=O)C=Cc2cccc(OC(=O)C=Cc3ccccc3)c2)cc1 [Compound 5, 3-phenyl-2-propenoic acid 3-[3-(4-methoxyphenyl)-3-oxo-1-propenyl]phenyl ester]
- mACO1 fold of induction compared to DMSO control (mACO1): 1.03 fold
- mFABP3 fold of induction compared to DMSO control (mFABP3): 1.88 fold
- mCD36 fold of induction compared to DMSO control (mCD36): 1.91 fold
- mUCP2 fold of induction compared to DMSO control (mUCP2): 2.33 fold
- mLPL fold of induction compared to DMSO control (mLPL): 1.84 fold
- mCPT1b fold of induction compared to DMSO control (mCPT1b): 4.19 fold
- Effect on CPT1b expression (in words) (mCPT1b): induced

Compound: COc1ccc(C(=O)C=Cc2ccc(OC)c(OC)c2)cc1 [Compound 6, 3-(3,4-dimethoxyphenyl)-1-(4-methoxyphenyl)-2-propen-1-one]
- mUCP3 fold of induction compared to DMSO control (mUCP3): 1.92 fold
- Effect on UCP3 expression (in words) (mUCP3): increased UCP3 expression
- mACO1 fold of induction compared to DMSO control (mACO1): 1.09 fold
- mFABP3 fold of induction compared to DMSO control (mFABP3): 5.02 fold
- Effect on FABP3 expression (in words) (mFABP3): most remarkable effect
- mCD36 fold of induction compared to DMSO control (mCD36): 22.66 fold
- Effect on CD36 expression (in words) (mCD36): most remarkable effect
- mUCP2 fold of induction compared to DMSO control (mUCP2): 6.1 fold
- mLPL fold of induction compared to DMSO control (mLPL): 2.44 fold
- Effect on LPL expression (in words) (mLPL): increased moderately
- mCPT1b fold of induction compared to DMSO control (mCPT1b): 1.62 fold

Compound: COc1ccc(C=C2Oc3cc(O)ccc3C2=O)cc1 [Compound 7]
- mACO1 fold of induction compared to DMSO control (mACO1): 1.03 fold
- mFABP3 fold of induction compared to DMSO control (mFABP3): 2.16 fold
- mCD36 fold of induction compared to DMSO control (mCD36): 2.95 fold
- mUCP2 fold of induction compared to DMSO control (mUCP2): 2.33 fold
- mLPL fold of induction compared to DMSO control (mLPL): 1.06 fold
- mCPT1b fold of induction compared to DMSO control (mCPT1b): 1.12 fold

Compound: COc1ccc(C(=O)C=Cc2ccc(OC)cc2OC)cc1 [Compound 8, 3-(2,4-dimethoxyphenyl)-1-(4-methoxyphenyl)-2-propen-1-one]
- mACO1 fold of induction compared to DMSO control (mACO1): 1.15 fold
- mFABP3 fold of induction compared to DMSO control (mFABP3): 3.36 fold
- mCD36 fold of induction compared to DMSO control (mCD36): 9.49 fold
- mUCP2 fold of induction compared to DMSO control (mUCP2): 4.68 fold
- mLPL fold of induction compared to DMSO control (mLPL): 1.88 fold
- mCPT1b fold of induction compared to DMSO control (mCPT1b): 1.29 fold
